We go through 32 compounds from patent US10301267B2, “Compounds” (AstraZeneca AB, priority 2006, dated 2019).

In general, IC50 refers to the midpoint of a concentration-inhibition curve.

Each structure is given as a SMILES string. Where a name gives a salt, the structure may show the parent alone.

FGFR1 active kinase, sequence (P11362 22-822): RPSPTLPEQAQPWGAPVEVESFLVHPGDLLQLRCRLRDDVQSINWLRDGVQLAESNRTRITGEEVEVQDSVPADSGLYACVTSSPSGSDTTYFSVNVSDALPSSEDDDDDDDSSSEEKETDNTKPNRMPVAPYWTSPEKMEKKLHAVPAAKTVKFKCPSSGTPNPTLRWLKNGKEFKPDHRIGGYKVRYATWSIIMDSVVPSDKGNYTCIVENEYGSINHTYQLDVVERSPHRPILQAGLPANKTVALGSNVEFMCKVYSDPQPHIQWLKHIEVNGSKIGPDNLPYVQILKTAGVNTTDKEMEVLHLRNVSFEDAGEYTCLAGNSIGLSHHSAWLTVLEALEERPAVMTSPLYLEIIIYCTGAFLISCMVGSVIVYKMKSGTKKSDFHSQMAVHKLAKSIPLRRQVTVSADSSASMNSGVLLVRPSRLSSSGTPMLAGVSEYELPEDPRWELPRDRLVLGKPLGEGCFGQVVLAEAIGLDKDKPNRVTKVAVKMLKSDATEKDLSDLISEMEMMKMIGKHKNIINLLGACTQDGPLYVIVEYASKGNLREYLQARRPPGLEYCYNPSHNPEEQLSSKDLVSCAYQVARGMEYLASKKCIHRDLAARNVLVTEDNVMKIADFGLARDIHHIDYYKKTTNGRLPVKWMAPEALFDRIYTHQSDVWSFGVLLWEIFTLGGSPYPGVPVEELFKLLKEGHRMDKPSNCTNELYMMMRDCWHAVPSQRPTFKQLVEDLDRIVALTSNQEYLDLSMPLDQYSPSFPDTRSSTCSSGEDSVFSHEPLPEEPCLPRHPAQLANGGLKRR

The assay concerns the target FGFR1 active kinase (Homo sapiens, UniProt P11362). Description: FGFR Kinase assay - Caliper. Also: 408 µM ATP. It counts as biochemical. Conditions: FGFR1 […], 408 uM ATP; mean of n as printed; read-out: FGFR Kinase assay - Caliper, IC50. The protocol:
FGFR Kinase Assay—Caliper
To determine inhibition of FGFR activity, kinase assays were conducted using Caliper technology.
Kinase activity assays were performed in Greiner 384-well low volume plates, with a total reaction volume of 12 ul per well. Final concentration of FGFR1 active kinase in each reaction well was 7.2 nM. The substrate for each assay was a custom peptide with fluorescent tag (13 amino acids in length, […] with the fluorescene tag on the first K).
Compounds were serially diluted in 5% (v/v) DMSO, before being added to assay plates. The Enzyme (at 7.2 nM [final]) and Substrate (at 3.6 uM [final]) were added separately to the compound plates, in reaction buffer [comprising: 50 mM MOPS (Sigma, Catalogue No. M1254)—pH 6.5, 0.004% Triton (Sigma, Catalogue No. X-100), 2.4 mM DTT, 12 mM MgCl2, 408 uM ATP] resulting in a final DMSO concentration in the reaction mix of 0.8%.
Assay plates were incubated at room temperature for 1.5 h, before the reaction was stopped with the addition of buffer [comprising: 100 mM HEPES—pH7.5, 0.033% Brij-35 (Sigma Catalogue No. B4184), 0.22% Caliper Coating Reagent #3 (Caliper Life Sciences Catalogue No. 760050), 88 mM EDTA, 5% DMSO]. Stopped assay plates were then read using the Caliper LabChip® LC3000 (which uses microfludics to measure a shift in mobility between fluorescent labelled peptide and the FGFR1 kinase—phosphorylated form of this peptide).
In the assay, compounds were tested at a range of concentrations.
Percentage inhibition at 1 uM, as expressed herein, is a calculated value based on the curve fit that was generated experimentally. From the fitted curve plot, the effect of compound at a concentration of 1 uM was calculated as a percentage inhibition. The IC50 is the concentration of compound, which inhibits FGFR1 kinase activity by 50% in the context of this assay.
For the compound `COc1cccc(CCc2cc(NC(=O)c3ccc(C#N)cc3)[nH]n2)c1` [Example 23, 4-Cyano-N-[5-[2-(3-methoxyphenyl)ethyl]-2H-pyrazol-3-yl]benzamide], the half-maximal inhibitory concentration (IC50) is 28600 nM.

`COc1cc(CCc2cc(NC(=O)c3ccc(C4CCNCC4)cc3)n[nH]2)cc(OC)c1` [Example 58, N-[5-[2-(3,5-Dimethoxyphenyl)ethyl]-1H-pyrazol-3-yl]-4-(4-piperidyl)benzamide]: the IC50 was 1 nM.

As to `COc1cc(COc2cc(NC(=O)c3ccc(N4CCN(C)CC4)cn3)[nH]n2)cc(OC)c1` [Example 69, N-[5-[(3,5-Dimethoxyphenyl)methoxy]-2H-pyrazol-3-yl]-5-(4-methylpiperazin-1-yl)pyridine-2-carboxamide], the IC50 was 122 nM.

For the compound `COc1cc(CCc2cc(NC(=O)c3ccc(N4CCN(C(C)C)CC4)cc3)n[nH]2)cc(OC)c1` [Example 87, N-[5-[2-(3,5-Dimethoxyphenyl)ethyl]-1H-pyrazol-3-yl]-4-(4-propan-2-ylpiperazin-1-yl)benzamide], the half-maximal inhibitory concentration (IC50) turned out to be 0.4 nM.

With `COc1cccc(CCc2cc(NC(=O)c3ccc(-c4cnco4)cc3)[nH]n2)c1` [Example 33, N-[5-[2-(3-Methoxyphenyl)ethyl]-2H-pyrazol-3-yl]-4-(1,3-oxazol-5-yl)benzamide], the IC50 was determined as 1200 nM.

As to `COc1cc(CCc2cc(NC(=O)c3ccccc3OC)n[nH]2)cc(OC)c1` [Example 41, N-[5-[2-(3,5-Dimethoxyphenyl)ethyl]-1H-pyrazol-3-yl]-2-methoxy-benzamide], the half-inhibitory concentration (IC50) came to 2610 nM.

As for `COc1cc(CCc2cc(NC(=O)c3ccc(N4CCN(CCO)CC4)cc3)n[nH]2)cc(OC)c1` [Example 51, N-[5-[2-(3,5-Dimethoxyphenyl)ethyl]-1H-pyrazol-3-yl]-4-[4-(2-hydroxyethyl)piperazin-1-yl]benzamide], the IC50 was 81 nM.

Turning to `COc1cc(CCc2cc(NC(=O)c3ccc(N4CCNCC4)cc3)n[nH]2)cc(OC)c1` [Example 45, N-[5-[2-(3,5-Dimethoxyphenyl)ethyl]-1H-pyrazol-3-yl]-4-piperazin-1-yl-benzamide], the IC50 is 26 nM.

On to `COc1cc(CCc2cc(NC(=O)c3ccccc3NCc3cc(C)no3)n[nH]2)cc(OC)c1` [Example 83, N-[5-[2-(3,5-Dimethoxyphenyl)ethyl]-1H-pyrazol-3-yl]-2-[(3-methyl-1,2-oxazol-5-yl)methylamino]benzamide], for which the IC50 is 1000 nM.

For the compound `COc1cc(CCc2cc(NC(=O)c3ccc(CN4CCN(C)CC4)cc3)n[nH]2)cc(OC)c1` [Example 95, N-[5-[2-(3,5-Dimethoxyphenyl)ethyl]-1H-pyrazol-3-yl]-4-[(4-methylpiperazin-1-yl)methyl]benzamide], the half-maximal inhibitory concentration (IC50) was 140 nM.

As for `COc1cc(CCc2cc(NC(=O)c3ccc(N4CCN(C(C)=O)CC4)cc3)n[nH]2)cc(OC)c1` [Example 90, 4-(4-Acetylpiperazin-1-yl)-N-[5-[2-(3,5-dimethoxyphenyl)ethyl]-1H-pyrazol-3-yl]benzamide], the concentration for half-maximal inhibition (IC50) stood at 56 nM.

`COc1cc(CCc2cc(NC(=O)c3ccc(N4CCN(C)C(C)C4)cc3)n[nH]2)cc(OC)c1` (centres unmarked) [Example 81, N-[5-[2-(3,5-Dimethoxyphenyl)ethyl]-1H-pyrazol-3-yl]-4-(3,4-dimethylpiperazin-1-yl)benzamide]: the IC50 turned out to be 40 nM.

Regarding `COc1cc(COc2cc(NC(=O)c3ccc(N4CCCNCC4)cc3)n[nH]2)cc(OC)c1` [Example 75, 4-(1,4-Diazepan-1-yl)-N-[5-[(3,5-dimethoxyphenyl)methoxy]-1H-pyrazol-3-yl]benzamide Hydrochloride], the IC50 came to 8.5 nM.

Regarding `COc1cc(CCc2cc(NC(=O)c3ccc(N4CCN(C)CC4)nn3)[nH]n2)cc(OC)c1` [Example 84, N-[5-[2-(3,5-Dimethoxyphenyl)ethyl]-2H-pyrazol-3-yl]-6-(4-methylpiperazin-1-yl)pyridazine-3-carboxamide], the IC50 turned out to be 390 nM.

For `COc1cc(CCc2cc(NC(=O)c3ccc(C4CCN(C)CC4)cc3)n[nH]2)cc(OC)c1` [Example 92, N-[5-[2-(3,5-Dimethoxyphenyl)ethyl]-1H-pyrazol-3-yl]-4-(1-methyl-4-piperidyl)benzamide], the half-maximal inhibitory concentration (IC50) was determined as 7.9 nM.

As for `COc1cc(CCc2cc(NC(=O)c3cccc(N4CCOCC4)c3)n[nH]2)cc(OC)c1` [Example 40, N-[5-[2-(3,5-Dimethoxyphenyl)ethyl]-1H-pyrazol-3-yl]-3-morpholin-4-yl-benzamide], the IC50 worked out at 710 nM.

As for `COc1cc(CCc2cc(NC(=O)c3ccc(N4CCNCC4)s3)n[nH]2)cc(OC)c1` [Example 60, N-[5-[2-(3,5-Dimethoxyphenyl)ethyl]-1H-pyrazol-3-yl]-5-piperazin-1-yl-thiophene-2-carboxamide (2,2,2-trifluoroacetic Acid Salt)], the IC50 stood at 22 nM.

For the compound `COc1cc(CCc2cc(NC(=O)c3cccc(OC)c3)n[nH]2)cc(OC)c1` [Example 39, N-[5-[2-(3,5-Dimethoxyphenyl)ethyl]-1H-pyrazol-3-yl]-3-methoxy-benzamide], the IC50 is 370 nM.

For `COc1cc(CCc2cc(NC(=O)c3ccc(N4CCCCC4)cc3)n[nH]2)cc(OC)c1` [Example 43, N-[5-[2-(3,5-Dimethoxyphenyl)ethyl]-1H-pyrazol-3-yl]-4-(1-piperidyl)benzamide], the concentration for half-maximal inhibition (IC50) was determined as 438 nM.

Turning to `COc1cc(CCc2cc(NC(=O)c3ccc(CN(C)C)cc3)n[nH]2)cc(OC)c1` [Example 47, N-[5-[2-(3,5-Dimethoxyphenyl)ethyl]-1H-pyrazol-3-yl]-4-(dimethylaminomethyl)benzamide], the IC50 came to 19 nM.

Consider `COc1cc(COc2cc(NC(=O)c3cccc(N4CCNCC4)c3)n[nH]2)cc(OC)c1` [Example 74, N-[5-[(3,5-Dimethoxyphenyl)methoxy]-1H-pyrazol-3-yl]-3-piperazin-1-yl-benzamide], for which the IC50 was found to be 130 nM.

For the compound `CN1CCN(c2ccc(C(=O)Nc3cc(CCc4ccc5c(c4)OCO5)n[nH]3)cc2)CC1` [Example 77, N-[5-(2-Benzo[1,3]dioxol-5-ylethyl)-2H-pyrazol-3-yl]-4-(4-methylpiperazin-1-yl)benzamide], the 50% inhibitory concentration (IC50) came to 140 nM.

As to `COC(=O)c1ccc(C(=O)Nc2cc(CCc3cccc(OC)c3)n[nH]2)cn1` [Example 67, Methyl 5-[[5-[2-(3-methoxyphenyl)ethyl]-2H-pyrazol-3-yl]carbamoyl]pyridine-2-carboxylate], the concentration for half-maximal inhibition (IC50) stood at 2860 nM.

For `COc1cc(COc2cc(NC(=O)c3ccc(N4CCNCC4)nc3)[nH]n2)cc(OC)c1` [Example 72, N-[5-[(3,5-Dimethoxyphenyl)methoxy]-2H-pyrazol-3-yl]-6-piperazin-1-yl-pyridine-3-carboxamide], the concentration for half-maximal inhibition (IC50) came out at 25 nM.

In the case of `COc1cccc(CCc2cc(NC(=O)c3ccc(NS(C)(=O)=O)cc3)[nH]n2)c1` [Example 27, 4-Methanesulfonamido-N-[5-[2-(3-methoxyphenyl)ethyl]-2H-pyrazol-3-yl]benzamide], the IC50 worked out at 260 nM.

Take `COc1cccc(CCc2cc(NC(=O)c3ccc(Nc4ccccc4)nc3)[nH]n2)c1` [Example 26, 6-Anilino-N-[5-[2-(3-methoxyphenyl)ethyl]-2H-pyrazol-3-yl]pyridine-3-carboxamide]: the half-inhibitory concentration (IC50) was 64000 nM.

For `COc1cccc(CCc2cc(NC(=O)c3ccc(NC=O)cn3)[nH]n2)c1` [Example 29, 5-Formamido-N-[5-[2-(3-methoxyphenyl)ethyl]-2H-pyrazol-3-yl]pyridine-2-carboxamide], the half-maximal inhibitory concentration (IC50) came out at 870 nM.

With `COc1cc(CCc2cc(NC(=O)c3ccc(N4CCNCC4)nc3)n[nH]2)cc(OC)c1` [Example 46, N-[5-[2-(3,5-Dimethoxyphenyl)ethyl]-1H-pyrazol-3-yl]-6-piperazin-1-yl-pyridine-3-carboxamide], the IC50 was found to be 40 nM.

As for `COc1cc(CCc2cc(NC(=O)c3ccc(CN4CCCC(C)(C)C4)cc3)n[nH]2)cc(OC)c1` [Example 50, N-[5-[2-(3,5-Dimethoxyphenyl)ethyl]-1H-pyrazol-3-yl]-4-[(3,3-dimethyl-1-piperidyl)methyl]benzamide], the IC50 came out at 1 nM.

Consider `COc1cccc(CCc2cc(NC(=O)c3ccc(N4CCN(S(C)(=O)=O)CC4)cc3)n[nH]2)c1` [Example 91, N-[5-[2-(3-Methoxyphenyl)ethyl]-1H-pyrazol-3-yl]-4-(4-methylsulfonylpiperazin-1-yl)benzamide], for which the IC50 stood at 250 nM.

In the case of `COc1cccc(CCc2cc(NC(=O)c3ccc(Cl)nc3)[nH]n2)c1` [Example 62, 6-Chloro-N-[5-[2-(3-methoxyphenyl)ethyl]-2H-pyrazol-3-yl]pyridine-3-carboxamide], the IC50 was 4540 nM.

With `COc1cccc(CCc2cc(NC(=O)c3ccc(CO)cc3)[nH]n2)c1` [Example 28, 4-(Hydroxymethyl)-N-[5-[2-(3-methoxyphenyl)ethyl]-2H-pyrazol-3-yl]benzamide], the 50% inhibitory concentration (IC50) was determined as 74 nM.
